Patent US7067517B2 (priority 2001, dated 2006)

target: T1, Hormone-sensitive lipase (HSL) (Homo sapiens, UniProt Q05469); test: biochemical; conditions: 10 μM sample concentration; percent activity relative to a non-inhibited sample (no compound)
T1 sequence (Q05469 1-1076): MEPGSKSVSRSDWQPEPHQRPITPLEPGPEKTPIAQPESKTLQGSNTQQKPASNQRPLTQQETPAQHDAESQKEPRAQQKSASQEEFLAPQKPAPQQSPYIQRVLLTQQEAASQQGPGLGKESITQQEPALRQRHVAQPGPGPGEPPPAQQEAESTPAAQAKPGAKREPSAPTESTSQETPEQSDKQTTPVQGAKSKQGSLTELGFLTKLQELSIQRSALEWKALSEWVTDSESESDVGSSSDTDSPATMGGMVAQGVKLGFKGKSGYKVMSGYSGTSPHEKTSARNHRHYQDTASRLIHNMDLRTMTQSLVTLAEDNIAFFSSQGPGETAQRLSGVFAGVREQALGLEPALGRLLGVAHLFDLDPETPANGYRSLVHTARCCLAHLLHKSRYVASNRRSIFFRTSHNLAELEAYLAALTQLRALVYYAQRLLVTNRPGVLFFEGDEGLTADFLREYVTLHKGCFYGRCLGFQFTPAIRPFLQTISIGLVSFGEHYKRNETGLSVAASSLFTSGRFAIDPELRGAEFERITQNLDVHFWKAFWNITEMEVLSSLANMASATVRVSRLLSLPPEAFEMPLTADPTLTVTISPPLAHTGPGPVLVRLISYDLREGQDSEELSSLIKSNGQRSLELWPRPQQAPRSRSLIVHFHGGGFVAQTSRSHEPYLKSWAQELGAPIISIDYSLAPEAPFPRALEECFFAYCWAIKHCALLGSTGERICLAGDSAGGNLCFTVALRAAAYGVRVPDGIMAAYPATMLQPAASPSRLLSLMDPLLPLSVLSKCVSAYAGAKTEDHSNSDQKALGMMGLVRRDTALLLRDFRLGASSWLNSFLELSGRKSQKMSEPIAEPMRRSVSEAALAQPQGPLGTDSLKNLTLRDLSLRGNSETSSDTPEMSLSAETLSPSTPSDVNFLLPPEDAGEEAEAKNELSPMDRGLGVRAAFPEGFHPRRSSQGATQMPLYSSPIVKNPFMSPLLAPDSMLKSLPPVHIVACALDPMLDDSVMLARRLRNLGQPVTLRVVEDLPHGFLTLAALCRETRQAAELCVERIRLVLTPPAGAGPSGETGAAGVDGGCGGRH
Procedure: Materials. The Hormone-sensitive lipase was provided by Dr. Cecilia Holm, from Lund University Sweden or produced and purified by Novo Nordisk (NN) using the reagents and protocols used by Dr. Holm. […] All other reagents are of commercial grade and obtained from various commercial sources.
BSA is added as product receptor. The transfer of the fluorochrome from the lipid phase to the water (BSA) phase changes the fluorescent properties of the fluorochrome. The changes can be monitored on a fluorimeter with an excitation wavelength of 450 nm and an emission wavelength of 545 nm.
Compound and HSL (20 μL compound, 10 μL enzyme and 70 μL PED-BSA buffer) is pre-incubated for 30 min at 25° C. before addition of substrate (100 μL). Amount of formed product is measured after 120 min incubation at 37° C.

| Compound | Test 3190.1 HSL_FL % ACTIVITY All [%] |
| --- | --- |
| CN(C(=O)Oc1ccc(OC(F)(F)C(F)(F)F)cc1)c1ccccc1 [Example 20] | 51 |
| O=C(Oc1ccc(Oc2ccc3c(C(F)(F)F)cc(C(F)(F)F)nc3n2)cc1)N1CCOCC1 [Example 90, Morpholine-4-carboxylic acid 4-(5,7-bis-trifluoromethyl-[1,8]naphthypyridin-2-yloxy)-phenyl ester] | 24 |

same assay, conditions: 10 μM sample concentration; percent activity relative to a non-inhibited sample (no compound); read-out: Test 3190.1 HSL_FL % ACTIVITY All

| Compound | activity at 10 µM [%] |
| --- | --- |
| CCN(C(=O)Oc1ccc(Oc2ccc(C(F)(F)F)cc2)cc1)c1ccccc1 [Example 54, Ethyl-phenyl-carbamic acid 4-(4-trifluoromethyl-phenoxy)-phenyl ester] | 52 |
| O=C(Oc1ccc(Oc2ccc(C(F)(F)F)cn2)cc1)N1CCc2ccccc21 [Example 62, 2,3-Dihydro-indole-1-carboxylic acid 4-(5-trifluoromethyl-pyridin-2-yloxy)-phenyl ester] | 88 |
| Cc1c(Cc2ccccc2)c(=O)oc2cc(OC(=O)N3CCCc4ccccc43)ccc12 [Example 73, 3,4-Dihydro-2H-quinoline-1-carboxylic acid 3-benzyl-4-methyl-2-oxo-2H-chromen-7-yl ester] | 39 |
| COc1ccc(OC)c(-c2c(C)c3ccc(OC(=O)N4CCCc5ccccc54)cc3oc2=O)c1 [Example 81, 3,4-Dihydro-2H-quinoline-1-carboxylic acid 3-(2,5-dimethoxy-phenyl)-4-methyl-2-oxo-2H-chromen-7-yl ester] | 36 |
| O=C(Oc1ccc(Oc2c(Cl)cncc2Cl)cc1)N1CCOCC1 [Example 85, Morpholine-4-carboxylic acid 4-(3,5-dichloro-pyridin-4-yloxy)-phenyl ester] | 88 |
| CC(C)(C)Oc1ccc(OC(=O)N2CCOCC2)cc1 [Example 87, Morpholine-4-carboxylic acid 4-tert-butoxy-phenyl ester] | 48 |

same assay, conditions: read-out: Test 3190.1 HSL_FL % ACTIVITY All

| Compound | activity at 10 µM [%] |
| --- | --- |
| CN(C(=O)Oc1ccc(OC(C)(C)C)cc1)c1ccccc1 [Example 11, Methyl-phenyl-carbamic acid 4-tert-butoxy-phenyl ester] | 17 |
| CN(C(=O)Oc1ccc(-c2ccc(Br)cc2)cc1)c1ccccc1 [Example 24, Methyl-phenyl-carbamic acid 4′-bromo-biphenyl-4-yl-ester] | 30 |
| COc1ccc(-c2c(C)c3ccc(OC(=O)N(C)c4ccccc4)cc3oc2=O)cc1 [Example 46, Methyl-phenyl-carbamic acid 3-(4-methoxy-phenyl)-4-methyl-2-oxo-2H-chromen-7-yl ester] | 43 |
| Cc1c(-c2ccccc2)c(=O)oc2cc(OC(=O)N(C)c3ccccc3)ccc12 [Example 47, Methyl-phenyl-carbamic acid 4-methyl-2-oxo-3-phenyl-2H-chromen-7-yl ester] | 42 |
| COc1ccc(OC)c(-c2c(C)c3ccc(OC(=O)N(C)c4ccccc4)cc3oc2=O)c1 [Example 48, Methyl-phenyl-carbamic acid 3-(2,5-dimethoxy-phenyl)-4-methyl-2-oxo-2H-chromen-7-yl ester] | 15 |
| CN(C(=O)Oc1ccc(Oc2ccc(C(F)(F)F)cn2)cc1)C1CCCCC1 [Example 59, Cyclohexyl-methyl-carbamic acid 4-(5-trifluoromethyl-pyridin-2-yloxy)-phenyl ester] | 16 |
| CN(C(=O)On1ccnn1)c1ccccc1 [Example 144, Methyl-phenyl-carbamic acid [1,2,3]triazol-1-yl ester] | 25 |

tested on: not given; test: not given; conditions: not given

| Compound | melting point [°C] |
| --- | --- |
| CC(C)(C)Oc1ccc(OC(=O)N2CCOCC2)cc1 [Example 87, Morpholine-4-carboxylic acid 4-tert-butoxy-phenyl ester] | 128.8 to 129.5 |
| CN(C(=O)On1ccnn1)c1ccccc1 [Example 144, Methyl-phenyl-carbamic acid [1,2,3]triazol-1-yl ester] | 105 to 106 |

target: T1, Hormone-sensitive lipase (HSL); test: biochemical; type: biochemical; conditions: 10 μM concentration; percent activity relative to an un-inhibited sample (no compound)
Description: (§1) Materials. The Hormone-sensitive lipase was provided by Dr. Cecilia Holm, from Lund University Sweden or produced and purified by Novo Nordisk (NN) using the reagents and protocols used by Dr. Holm. The substrates used are: ^3H-labeled triolein (TO) from Amersham, Buckinghamshire, U.K. cat No. TRA191; 5–20 Ci/mmol dissolved in toluene, triolein (Sigma, Cat. No. T-1740), fluorochrome-labeled triacylglyceride (cis-octadec-9-enoic acid 2-[12-(7-nitrobenzo[1,2,5]oxadiazol-4-ylamino)dodecanoyloxy]-1-cis-octadec-9-enoyloxymethyl-ethyl ester) prepared by Novo Nordisk (NN) by conventional methods, and 1,3-(di[^3H]-stearin), 2-(PEG-Boitin)glycerol prepared in collaboration with Amersham Pharmacia Biotech, UK and described in WO 01/073442. Phosphatidyl choline (PC) and phosphatidyl inositol (PI) are from Sigma (St Luis Mo. cat. Nos. P-3556 and P-5954 respectively). All other reagents are of commercial grade and obtained from various commercial sources.
3180.2: Assay for determination of percent inhibition by compound at 10 μM concentration.
A lipid emulsion with ^3H-Triolein and phospholipid is used as substrate with a standard cencentration of highly purified HSL. BSA is added as product receptor. The substrate is prepared as follows:
30 μl PC:PI (20 mg/ml solution of PC:PI 3:1 prepared in chloroform)+128 μl cold TO+15 μl ^3H-TO are mixed and then evaporated under a gentle stream of N2 followed by 20–30 minutes in a Speedvac to ensure the absence of residual solvent.
Compound and HSL are incubated for 30 min at 25° C. before addition of substrate. Reaction is stopped after 30 min at 25° C. by adding a mixture of methanol, chloroform and heptane at high pH. Formed product is separated from substrate by phase separation.
Results are given as percent activity relative to an un-inhibited sample (no compound).

| Compound | Test 3180.2 HSL % ACTIVITY All [%] |
| --- | --- |
| Cc1c(Cc2ccccc2)c(=O)oc2cc(OC(=O)N3CCOCC3)ccc12 [Example 92] | 62 |

target: T1, Hormone-sensitive lipase (HSL); test: Test 2848.2: high-volume screening assay, para-nitrophenyl butyrate (p-NPB) substrate; type: biochemical; conditions: UV-abs 405 nm, 20 min room temp, % Eff (% Inhibition)
Description: as §1
2848.2: This high-volume screening assay uses para-nitrophenyl butyrate (p-NPB) as substrate for HSL. HSL cleaves p-NPB and the reaction is monitored as an increase in the concentration of para-nitrophenol (p-NP). p-NP can be monitored as an increase in UV-absorbance at 405 nm. The reaction is carried out at room-temp. for 20 min. The action is not stopped, but instead UV-abs is measured at a fixed time (20 min.) Due to autohydrolysis of the substrate the reaction is read at t=0 min. too and t=20 min. and the increase in Abs is calculated as the difference between the two readings. When a compound that inhibits HSL is present, it results in a relative decrease in UV-absorbance. % Eff(% Inhibition)=(S−S0Eff)/(SmaxEff−S0Eff)×100 Where S=signal in UV-abs., S0Eff=assaybuffer alone, SmaxEff=Assaybuffer with the lipase inhibitor.

| Compound | Test 2848.2 HSL % Inhibition All [%] |
| --- | --- |
| O=C(Nc1ccc(Cl)cc1)n1nc(-c2ccc(Cl)cc2)cc1CCCO [Example 126, N-(4-Chlorophenyl)-3-(4-chlorophenyl)-5-(3-hydroxypropyl)-pyrazole-1-carboxamide] | 33 |
| O=C(NCCc1ccccc1)n1nc(-c2ccc(Oc3ccccc3)cc2)cc1N1CCOCC1 [Example 127, 5-Morpholin-4-yl-3-(4-phenoxyphenyl)-pyrazole-1-carboxylic acid phenethylamide] | 58.7 |
| O=C(Nc1ccccc1)n1ncc(S(=O)(=O)c2ccc(Cl)cc2)c1-c1ccc(Cl)cc1 [Example 128, N-Phenyl-4-(4-chlorobenzenesulfonyl)-5-(4-chlorophenyl)-pyrazole-1-carboxamide] | 33.8 |
| O=C(Nc1ccc(Cl)c(Cl)c1)n1c(-c2ccccc2)nc2ccccc21 [Example 129, N-(3,4-Dichlorophenyl)-2-phenyl-benzimidazole-1-carboxamide] | 27 |
| CC(C)Sc1nnc(OC(=O)N(C)C)n1-c1cccc(C(F)(F)F)c1 [Example 130, Dimethyl-carbamic acid 5-isopropylsulfanyl-4-(3-trifluoromethyl-phenyl)-4H-[1,2,4]triazol-3-yl ester] | 30.1 |
| CN(C)C(=O)Oc1c(-c2ccccc2)cn(Cc2ccccc2)c(=O)c1-c1ccccc1 [Example 131, Dimethyl carbamic acid 1-benzyl-2-oxo-3,5-diphenyl-1,2-dihydro-pyridin-4-yl ester] | 21.6 |
| COc1ccc2c(OC(=O)N(C)C)cc(=O)n(C)c2c1 [Example 132, Dimethyl-carbamic acid 7-methoxy-1-methyl-2-oxo-1,2-dihydro-quinolin-4-yl ester] | 19.6 |
